Experimental findings from publication PMC10606064, “2-Aminothiazole-Flavonoid Hybrid Derivatives Binding to Tau Protein and Responsible for Antitumor Activity in Glioblastoma” (International Journal of Molecular Sciences, 2023) are described below.

One assay concerns U87 shTau cells. The assay is described as follows: MTT cell viability assay, U87 shTau (Tau-depleted). Format: cell-based. The conditions noted are these: Homo sapiens, 72 h, mean ± SEM, read-out: IC50 (metabolic activity). As to the method:
All cell lines were purchased from ATCC, Gaithersburg, MD, USA. Cells from human glioblastoma (clones U87 wt, HTB-14; U118, HTB-15; U251, HTB-12; U138, HTB-16), neuroblastoma (clone SK-N-SH, HTB-11), and colorectal adenocarcinoma (clone Caco-2, HTB-37) were routinely grown at 37 °C in a humidified atmosphere containing 5% CO2. Cells were maintained by regular passages in complete media supplemented with 10% FBS, 2mM of L-glutamine, 100 U/mL of penicillin, and 50 U/mL of streptomycin (Invitrogen, Paris, France). For U87 wt, U251, U138, and SK-N-SH cells, the medium consisted of EMEM (Lonza, Levallois Perret, France). U118 and Caco-2 lines were maintained in DMEM. The U87 wt-derived lines, U87 shCTRL, and U87 shTau2 cells were continuously maintained in complete EMEM medium supplemented with 0.4 µg/mL of puromycin. The shRNA sequences and the protocol of clone selection and Tau downregulation were previously described in [20]. For Tau expression rescue, the U87 shCTRL and U87 shTau cells were seeded two days prior to experiments at 4.10^5 cells per 60 mm dish in 6 mL of complete medium. Cells were transfected using LipofectAmine 2000 according to Invitrogen instructions and 8 µg EGFP-free plasmid constructs (for U87 shCTRL) and EGFP-hTau40 plasmid constructs (for U87 shTau) were used in total. One day prior to experiments, all cells were plated in a 96-well microtiter plate to prepare for viability assays. Cells were free from mycoplasma as determined by mycoalert tests (Lonza).
Cells harvested from sub-confluent monolayers were seeded at 15,000 cells per mL in a 96-well microtiter plate (Cambridge Technology, Labège, France) and cultured for 24 h under standard conditions. Standard medium was then replaced by fresh medium containing no drugs or compounds at different concentrations. The surviving cells were quantified after 72 h by the MTT assay, according to the manufacturer’s instructions. Briefly, 20 µL of 3-(4,5-diMethylThiazol-2-yl)-2,5diphenyl Tetrazolium bromide (MTT) solution at 5 mg.mL^−1 was added to cells for 3 h at 37 °C. The supernatant was discarded and replaced by 100 µL of dimethyl sulfoxide to dissolve formazan crystals. The absorbance was then read at 600 nm by spectrophotometry. For all concentrations of a given compound, cell viability was expressed as the percentage of the ratio between the mean absorbance of treated cells and the mean absorbance of untreated cells. Three independent experiments were performed, and the data were expressed as percentage of survival (using the untreated cells as 100%) and subjected to statistical analysis (n = 3). The IC50 was calculated using the Chou and Talalay method.
For orientation: Formazan colour is commonly taken as a measure of viable cells.

Another assay addresses T1, mature Tau aggregates (Homo sapiens, UniProt P10636).
T1 construct: The full-length human Tau (hTau40) was expressed in a transformed E. coli BL21 (DE3) strain; made in house; host or cells: E. coli BL21 (DE3)
The assay is described as follows: Dissolution of preformed (mature) Tau aggregates, ThS fluorescence. The settings on record: 10, 30 and 100 µM added to ThS-labelled aggregates after 8 h, 37 °C. Format: biochemical. As to the method:
Moreover, we performed a qualitative study of the ability of QCT and compounds 1, 5, and 9 to dissolve preformed Tau aggregates (Figure 3).
Eight-hour time courses were performed with ThS to monitor heparin-induced Tau aggregation by spectrofluorometry at 520 nm (37 °C), then 10, 30, and 100 µM of compounds (curves b–d) were added to the ThS-labelled Tau aggregates. A control was performed without compound (curve a).

In a further assay the test system is U87 shCTRL cells. The assay is described as follows: Mitochondria network analysis (citrate synthase immunofluorescence), U87 shCTRL. Format: cell-based, human. The conditions noted are these: 5 µM, 24 h (Figure 4 legend: 48 h). As to the method: For indirect immunofluorescence of mitochondria, 10^4 cells were plated on cover glass and incubated for 24 h with compounds. Cells were then fixed in 4% formaldehyde (in PBS pH 7.4) for 20 min at RT, permeabilized with PBS-Triton X-100 0.5% for 10 min at RT. Immunostaining was carried out overnight at 4 °C with a primary anti-citrate synthase antibody (dilution 1:400 in PBS-BSA 3%; SC390693; SantaCruz Biotechnologies, Heidelberg, Germany). The following day, the cells were washed then incubated with anti-mouse secondary antibody (dilution 1:800 in PBS-BSA 3%; A-11029; Invitrogen) and TRITC-phalloidin (dilution 1:2500 in PBS-BSA 3%; P1951; Sigma-Aldrich, Saint-Quentin-Fallavier, France) for 1 h at RT in the dark. For the microtubule network, the same protocol for mitochondria labeling was carried out by replacing with primary anti-α-tubulin antibody (dilution 1:400 in PBS-BSA 1% from a 1 mg/mL solution; monoclonal antibody, clone DM1A, Sigma-Aldrich, Saint-Quentin-Fallavier, France). Next, cells were washed in PBS and cover glasses were mounted with a drop of ProLong® anti-fade solution (Invitrogen). Mitochondria and cytoskeletons were imaged using a confocal laser scanning microscope (CLSM) Leica SP5 with a Leica inverted microscope, equipped with a Plan-Apochromat 63×oil immersion objective (NA = 1.4). Each image was recorded with the CLSM’s spectral mode selecting specific domains of the emission spectrum. The Alexafluor488 and FITC fluorophores were excited at 488 nm with an argon laser, and fluorescence emission was collected between 496 nm and 535 nm. The TRITC fluorophore was excited at 543 nm with a helium–neon laser, and fluorescence was collected between 560 and 620 nm. The public-domain Fiji v1.54f software was used for image analysis.
The analyses of mitochondria and microtubule networks were performed using, respectively, the ‘Mitochondria analyzer’ plugin for Fiji v1.54f software and the method described in our earlier work. Briefly, a series of images were transferred to the software and corrected for background fluorescence intensity contribution. Next, the surface of 50 single cells was measured by considering the cell shape as the boundary of labelling of actin or α-tubulin cytoskeletons (respectively for measurement on mitochondria or microtubules). Then, the mitochondria elongation and mean branch junction per mitochondria parameters, and the surface of the microtubule network, were measured by performing systematically the Otsu method to reduce all gray-level images to binary images. […] Moreover, the ratios of microtubules on cell surfaces were calculated as percentages.

T1 sequence (P10636 1-441 isoform P10636-8): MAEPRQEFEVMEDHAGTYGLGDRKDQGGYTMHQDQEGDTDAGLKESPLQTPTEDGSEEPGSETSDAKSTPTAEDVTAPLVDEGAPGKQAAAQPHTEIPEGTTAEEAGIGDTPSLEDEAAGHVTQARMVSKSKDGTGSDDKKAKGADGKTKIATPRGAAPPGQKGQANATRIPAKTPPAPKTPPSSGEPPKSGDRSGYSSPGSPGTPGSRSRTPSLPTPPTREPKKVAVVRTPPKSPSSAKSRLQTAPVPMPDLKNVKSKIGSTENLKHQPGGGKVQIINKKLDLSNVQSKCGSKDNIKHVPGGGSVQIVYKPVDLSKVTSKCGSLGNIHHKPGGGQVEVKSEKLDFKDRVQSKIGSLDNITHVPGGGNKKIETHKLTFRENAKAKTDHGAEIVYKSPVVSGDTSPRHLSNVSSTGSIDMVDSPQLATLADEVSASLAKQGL

Turning to `Nc1nc2ccc3oc(C(=O)O)cc(=O)c3c2s1` [Compound 5], the IC50 (as a rule, the midpoint of a concentration-inhibition curve) in the assay on U87 shTau cells was above 100 µM. For the same molecule, at mature Tau aggregates, the “Ability to dissolve mature (preformed) Tau aggregates” value was “no significant change of ThS fluorescence intensity”. Also, in the assay on U87 shCTRL cells, the “change in elongation index of mitochondria” value was “No effect” and the “reduction in the number of branch junctions per mitochondria” value was “No effect”.

`Nc1nc2ccc3oc(-c4cccc(Oc5ccccc5)c4)cc(=O)c3c2s1` [Compound 2, 2-amino-7-(3-phenoxyphenyl)-9H-chromeno [6,5-d]thiazol-9-one]: the IC50 in the assay on U87 shTau cells worked out at 4.7 ± 0.3 µM. Moreover, the “Ability to dissolve mature (preformed) Tau aggregates” value on mature Tau aggregates was “able to dissolve mature Tau aggregates”. In addition, in the assay with U87 shCTRL cells, the “change in elongation index of mitochondria” value was −12.5% and the “reduction in the number of branch junctions per mitochondria” value came to 1.8 fold.
